Measured values from patent publication US6342517B1, “Potassium channel activators and their use” (Cambridge Bioclinical Limited, priority 1998, dated 2002).

Tests used:
NIH 3T3 fibroblasts = assay: Cell growth potentiation test (potentiation of mitogenic activity of fetal calf serum, EZ4U cellular proliferation assay); assay type: cell-based; conditions: for Cell growth potentiation relative to minoxidil at 100 μM (%): 0% = base concentration of FCS alone (5% or 3%), 100% = minoxidil at 100 μM; for Cell growth relative to FCS alone (%): 100% = same growth as base concentration of FCS alone
Source text: To test for activity in mammalian hair growth stimulation, an in vitro test of cell growth potentiation has been applied to a number of the compounds of the invention and prior art compounds 11901 and 11903. The test involves an assay of the call growth due to potentiation of the mitogenic activity of fetal calf serum (FCS). See WO97/14036. Details of materials, methods and results are as follows.
Tissue culture plastics were obtained from Beckton Dickinson (Cowley, Oxford, UK). NIH 3T3 fibroblasts were obtained from the European collection of animal cell cultures (Salisbury, Wilts, UK). Dulbecco's modified Eagle's medium (DMEM) was obtained from Flow Laboratories (Rickmansworth, Herts, UK). L-Glutamine and fetal calf serum were from Gibco (Paisley, UK).
The EZ4U cell proliferation assay kits were obtained from Cozart Bioscience Ltd (Abingdon, Oxon, UK). All other chemicals were obtained from Sigma Chemical Company Ltd. (Poole, Dorset, UK), and of the highest grade available.
NIH 3T3 fibroblasts were maintained in Dulbecco's modified Eagle's medium supplemented with 10% FCS and 2 mM L-glutamine in 150 cm^2 tissue culture flasks at 37° C. in an atmosphere of 5% CO2/95% air. Antibiotics were omitted. Medium was changed every 3 days, and passages were carried out twice a week before cells reached confluence. Prior to experiments, cells were passaged and plated out to give 10^4 cell/ml in 96-well multi-well plates. Cells were incubated for 24 hours with Dulbecco's modified Eagle's medium supplemented with 10% FCS to aid attachment. This was then removed and the experimental medium added.
Compounds were prepared following a general preparation protocol. This protocol consisted of taking a mass of compound, dissolving in the recommended solvent (40 μl) such that in the final preparation the concentrations of compound and solvent would be 100 μM and 0.1 respectively. In theory this volume was 40 μl, however for accuracy a mass larger than the required mass was dispensed and the solvent volume varied accordingly; only 40 μl of this solution was required for the next stage. The 40 μl volume was then added to a volume of FCS (1.2 ml), such that in the final preparation the concentration of FCS would be 3%. This solution was then added to DMEM containing L-glutamine (2 mM) (18.76 ml). The resulting solution of 20 ml volume was filter stabilised. This solution is now 200 μM in compound, 6% FCS and 0.2% solvent, and so was diluted 1:1 with the DMEM containing L-glutamine. This 100 μM stock could then be diluted serially to provide lower concentrations of the compound of interest. Solutions containing different ratios of compound and FCS were obtained in a similar manner.
This was performed, following the manufacturer's instructions, using an EZ4U assay kit, which is based upon the conversion of tetrazolium salt to coloured formazam derivatives by mitochondria (Hansen et al, 1989). Plates were read on a plate reader (Anthos Labtec HT2), using a measurement filter (450 nm), with a reference filter (620 nm) with a low Shaking density for 5 seconds prior to measurement. Control experiments were made against counting cells in a haemocytometer (sanders et al, 1996). There is some variance of results between different batches of FCS employed.
A series of cell growth potentiation/inhibition tests has been carried out in accordance with the procedure described above on some of the compounds of the invention, on compounds 11901 and 11903 and on minoxidil (a compound well known for its hair growth stimulation effects). Because of some variability of results with different batches of FCS, each compound was tested in a solution of a base concentration of FCS and was compared with minoxidil in a solution of the same base concentration of FCS and with a solution having the same base concentration of FCS alone (no additive), using the same FCS batch in order to provide standardised comparisons for that compound. […]

[1] = system: K+-stimulated isolated rat aorta; assay: K+-stimulated isolated rat aorta test; conditions: relaxation of contraction triggered by 25 mM KCl in rat aorta rings; asterisk (*) = low activity, only approximate value
Description: K^+-stimulated Isolated Rat Aorta Test
Male rats weighing about 300 g are killed painlessly by a blow to the neck and quickly exsanguinated. The thoracic cavity is opened and the aorta is carefully resectioned. It is placed in a Petri dish filled with Krebs solution, and surrounding connective and fatty tissue is removed. Two rings are prepared. The rings are each suspended in an organ bath, They are attached at the bottom to a hook and at the top to an electrical force transducer which is able to measure precisely contractions of 0-10 grams in strength. The measured contractions are amplified by means of a bridge amplifier and recorded with a thermal plotter.
The organ baths are filled with Krebs solution at 37° C. through which an O2/CO2 mixture is bubbled thoroughly and which has the following composition (mmol/1): NaCl 118.4; KCl 4.7; CaCl2 2.5; KH2PO4 1.2; MgSO4 1.2; NaHCO3 25; glucose 11.
The rings are stretched with a basic tone of about 0.5 g, After an equilibration time of about 30 minutes, the rings are caused to undergo contraction by depolarization (addition of 25 mM KCl to the organ bath). The contractions of the rings of aorta, triggered by the depolarization, quickly reach a plateau, As soon as this plateau is reached (“100% value”), the test substance is added to the organ bath, initially at low concentrations, for example 10^−8M, and then in increasing doses at regular intervals, until the contractions reduce or the final concentration of 10^−4M is reached. Each test substance is tested 2-4 times in this way.
For purposes of evaluation, the height of the contractions registered on the plotter paper is measured for each experiment after the action of each test concentration added. The IC50 value can be calculated in this way in relation to the original height of contractions before the addition of substance (100%).

5,5-Dimethyl-7-(2-oxo-1-pyrrolidinyl)-2-(thiazolin-2-yl)-5-thieno[3,2-b]pyran [Compound 50133]
Cell growth potentiation relative to minoxidil at 100 μM (%) (NIH 3T3 fibroblasts; Compound at 10 μM): 54% | Cell growth relative to FCS alone (%) (NIH 3T3 fibroblasts; Compound at 100 μM): 60%

6′,7′-Dihydro-5′,5′-dimethylspiro[1,3-dithialane-2,7′-5H-thieno[3,2-b]pyran]-2′-carbonitrile [Compound 50066]
IC50 [1]: ~10 µM | Cell growth potentiation relative to minoxidil at 100 μM (%) (NIH 3T3 fibroblasts; Compound at 10 μM): 355% | Cell growth potentiation relative to minoxidil at 100 μM (%) (NIH 3T3 fibroblasts; Compound at 100 μM): 144%

6′,7′-Dihyrdro-5′,5′-dimethylspiro[1,3-dithiolane-2,7′-5H-thieno[3,2-b]pyran] [Compound 50063]
IC50 [1]: ~10 µM | Cell growth relative to FCS alone (%) (NIH 3T3 fibroblasts; Compound at 10 μM): 55% | Cell growth relative to FCS alone (%) (NIH 3T3 fibroblasts; Compound at 100 μM): 93%

CC1=C(C)C[C@]2(CC(C)(C)Oc3ccsc32)[S@+]([O-])C1 (relative stereo) [Compound 50054, rel-(1′R, 2′R)-3′,6,6′,7-Tetrahydro-4′,5,5′,5-tetramethylspiro[5H-thieno[3,2-b]pyran-7,2′-2H-thiopyran]-1′-oxide]
IC50 [1]: ~3 µM

CC1=C(C)C[C@@]2(CC(C)(C)Oc3ccsc32)[S@+]([O-])C1 (relative stereo) [Compound 50055, rel-(1′R, 2′S)-3′,6,6′,7-Tetrahydro-4′,5,5′,5-tetramethylspiro[5N-thieno[3,2-b]pyran-7,2′-2H-thiopyran]-1′-oxide]
IC50 [1]: ~10 µM

CC1(C)C[C@@]2(SCC[S@+]2[O-])c2sccc2O1 (relative stereo) [Compound 50064, rel-(1S, 2S)-6′,7′-Dihydro-5′,5′-dimethylspiro[1,3-dithiolane-2,7′-5H-thieno[3,2-b]pyran]-1-oxide]
IC50 [1]: ~10 µM

CC1(C)C[C@]2(SCC[S@+]2[O-])c2sccc2O1 (relative stereo) [Compound 50065, rel-(1S, 2R)-6′,7′-Dihydro-5′,5′-dimethylspiro[1,3-dithiolane-2,7′-5H-thieno[3,2-b]pyran]-1-oxide]
IC50 [1]: ~30 µM

CC1(C)C[C@@]2(SCC[S@+]2[O-])c2sc(C#N)cc2O1 (relative stereo) [Compound 50067, rel-(1S, 2S)-6′,7′-Dihydro-5′,5′-dimethylspiro[1,3-dithiolane-2,7′-5H-thieno[3,2-b]pyran]-2′-carbonitrile-1-oxide]
IC50 [1]: ~100 µM | Cell growth relative to FCS alone (%) (NIH 3T3 fibroblasts; Compound at 10 μM): 96% | Cell growth relative to FCS alone (%) (NIH 3T3 fibroblasts; Compound at 100 μM): 69%

CC1(C)C[C@]2(SCC[S@+]2[O-])c2sc(C#N)cc2O1 (relative stereo) [Compound 50068, rel-(1S, 2R)-6′,7′-Dihydro-5′,5′-dimethylspiro[1,3-dithiolane-2,7′-5H-thieno[3,2-b]pyran]-2′-carbonitrile-1-oxide]
IC50 [1]: ~30 µM

CC1(C)C[C@]2(SCCC[S@+]2[O-])c2sccc2O1 (relative stereo) [Compound 50070, rel-(1S, 2R)-6′,7′-Dihydro-5′,5′-dimethylspiro[1,3-dithiane-2,7′-5H-thieno[3,2-b]pyran]-1-oxide]
Cell growth relative to FCS alone (%) (NIH 3T3 fibroblasts; Compound at 10 μM): 81% | Cell growth relative to FCS alone (%) (NIH 3T3 fibroblasts; Compound at 100 μM): 78%

CC1=C(C)C[C@]2(CC(C)(C)Oc3cc(C#N)sc32)[S@+]([O-])C1 (relative stereo) [Compound 50096, rel-(1′R, 2′R)-3′,6,6′,7-Tetrahydro-4′,5,5′,5-tetramethyl-1′-oxospiro[5H-thieno[3,2-b]pyran-7,2′-2H-thiopyran-2-carbonitrile]
IC50 [1]: 2.3 µM

CC1=C(C)C[C@]2(CC(C)(C)Oc3cc(S(=O)(=O)c4ccccc4)sc32)[S@+]([O-])C1 (relative stereo) [Compound 50126, rel-(1′R,2′R)-3′,6,6′,7-Tetrahydro-4′,5,5′,5-tetramethyl-2-(phenylsulphonyl)spiro[5H-thieno[3,2-b]pyran-7,2′-2H-thiopyran]1′-oxide]
IC50 [1]: 6.3 µM

CC1=C(C)C[C@@]2(CC(C)(C)Oc3cc(S(=O)(=O)c4ccccc4)sc32)[S@+]([O-])C1 (relative stereo) [Compound 50127, rel-(1′R,2′S)-3′,6,6′,7-Tetrahydro-4′,5,5′,5-tetramethyl-2-(phenylsulphonyl)spiro[5H-thieno[3,2-b]pyran-7,2′-2H-thiopyran]1′-oxide]
IC50 [1]: 7.4 µM

CC1(C)Oc2cc(C(F)(F)C(F)(F)F)sc2[C@@H](N2CCCCC2=O)[C@@H]1O (relative stereo) [Compound 50174, rel-(6S, 78S)-2-(Pentafluoroethyl)-6,7-dihydro-6-hydroxy-5,5-dimethyl-7-(2-oxo-1-piperidinyl)-5H-thieno[3,2-b]pyran]
Cell growth potentiation relative to minoxidil at 100 μM (%) (NIH 3T3 fibroblasts; Compound at 10 μM): 244% | Cell growth potentiation relative to minoxidil at 100 μM (%) (NIH 3T3 fibroblasts; Compound at 100 μM): 133%

CC1(C)C=C(N2CCCC2=O)c2sc(C#N)cc2O1 [Compound 50040, 5,5-Dimethyl-7-(2-oxo-1-pyrrolidinyl)-5H-thieno[3,2-b]pyran-2-carbonitrile]
Cell growth potentiation relative to minoxidil at 100 μM (%) (NIH 3T3 fibroblasts; Compound at 10 μM): 24% | Cell growth potentiation relative to minoxidil at 100 μM (%) (NIH 3T3 fibroblasts; Compound at 100 μM): 48%

CC1=C(C)C(C2=CC(C)(C)Oc3cc(C#N)sc32)[S+]([O-])C1 (stereo not shown) [Compound 50106, 5,5-Dimethyl-(2,5-dihydro-3,4-dimethyl-1-oxy-thien-2-yl)-5H-thieno[3,2-b]pyran-2-carbonitrile]
Cell growth relative to FCS alone (%) (NIH 3T3 fibroblasts; Compound at 10 μM): 80% | Cell growth potentiation relative to minoxidil at 100 μM (%) (NIH 3T3 fibroblasts; Compound at 100 μM): 60%

CC1(C)Oc2cc(S(=O)(=O)c3ccccc3)sc2[C@@H](N2CCCC2=O)[C@@H]1O [Compound 50108, (?)-(6S, 7S)-6,7-Dihydro-6-hydroxy-5,5-dimethyl-7-(2-oxo-1-pyrrolidinyl)-2-(phenylsulphonyl)-5H-thieno[3,2-b]pyran]
IC50 [1]: 0.018 µM

CC1=C(C)CS(=O)(=O)C2(C1)CC(C)(C)Oc1ccsc12 (stereo not shown) [Compound 50110, 3′,6,6′,7-Tetrahydro-4′,5,5,5′-tetramethyl-spiro[5H-thieno[3,2-b]pyran-7,2′-2H-thiopyran]-1′,1′-dioxide]
IC50 [1]: 10 µM

CC1(C)CC2(CC3(C)OC3(C)CS2(=O)=O)c2sccc2O1 (stereo not shown) [Compound 50111, 4′,5′-Epoxy-3′,6,6′,7-tetrahydro-4′,5,5,5′-tetramethyl-spiro[5H-thieno[3,2-b]pyran-7,2′-2H-thiopyran]-1′,1′-dioxide]
IC50 [1]: 3 µM

Nc1cc(N2CCCCC2)nc(N)[n+]1[O-] [minoxidil, reference compound]
concentration of greatest potentiation of mitogenic activity of FCS (NIH 3T3 fibroblasts; 5% FCS, FIG. 2, 100% growth = value for 10% FCS): 100 µM
